{"source": "patent US5891913A", "about": "“Ophthalmic and aural compositions containing diclofenac potassium” (priority 1994, dated 1999)", "key": {"[1]": {"assay": "Lens penetration and ocular distribution of 14-C labelled eye drops after multiple topical ocular administration", "assay_type": "in vivo, chinchilla pigmented rabbits", "experimental": "In a first animal model, the ocular distribution and lens penetration of diclofenac potassium and diclofenac sodium is determined after multiple topical ocular administration of a corresponding eye drop composition. […] At regular intervals post-instillation (0.5, 1.5, 2.0 hours), the animals are sacrificed and both eyes are removed. Said eyes are microdissected and the ocular distribution of the radioactivity is measured by a standard scintillation beta counting method.\nLens penetration and ocular distribution of diclofenac potassium and diclofenac sodium were determined after multiple topical ocular administration of corresponding 14-C labelled eye drop composition into the conjunctival sac of the right eye of pigmented rabbits.\nAt 0.5, 1.5, 2 hours post-instillation, 5 animals for each time-point and each treatment group were sacrificed and the radioactivity content (in ng-Eq/g of structure) in the cornea, aqueous humor, iris-ciliary body, vitreous, whole blood and plasma was measured. At 2 hours post-instillation, the left eyes were removed and the ocular distribution was measured by a standard scintillation beta counting method. The right lenses were used for autoradiography.\nThe areas under the curve (AUC: ng-Eq/g of structure versus time) were calculated and statistically compared."}, "[2]": {"tested_on": "arachidonic acid induced uveitis", "assay": "Arachidonic acid induced uveitis, aqueous flare by laser cell flare meter (LCFM)"}, "[3]": {"tested_on": "uveitis", "assay": "Uveitis models in rabbits (all the aforementioned animal models: arachidonic acid, argon laser iris photocoagulation, paracentesis)", "assay_type": "in vivo, pigmented rabbits", "settings": "compared to diclofenac sodium", "experimental": "Uveitis is induced in said model by an argon laser iris photocoagulation in pigmented rabbits. Said iris photocoagulation is induced by 500 μm argon laser burns (power 750 mW, duration 0.1 sec). The inflammatory processes resulting therefrom are measured every 30 minutes after the laser induced photo-coagulation, by using the laser cell flare meter (LCFM) technique.\nIn addition to the non invasive LCFM evaluation of the above mentioned animal model, an invasive evaluation is carried out. Therefore the rabbits are sacrificed one hour and in regular intervals after which said eyes have been subjected to the traumatic uveitis by photocoagulation, and the aqueous humor of said rabbit eyes is sampled. The aqueous protein levels, cell counts and prostaglandins (PGE2, PGD2, 6-keto PGF1α) which represent the degree of an inflammation are biochemically investigated and quantified.\nAnother animal model is used for the induction of a traumatic uveitis. It is the induction of a uveitis by the paracentesis of the anterior chamber of the rabbit eye. In analogy to the previously described laser induced uveitis model, drugs to be tested, are again administred prior to the paracentesis challenge. […] The aqueous protein levels are again analyzed, quantified and then correlated with the degree of an inflammation."}, "[4]": {"tested_on": "eye", "assay": "Pharmacological studies: topical (ocular) tolerance, efficacy, onset and duration of action"}}, "note": "Entries after “also recorded” stand apart in the source; their conditions may differ.", "data": [{"smiles": "O=C(O)Cc1ccccc1Nc1c(Cl)cccc1Cl", "note": "[diclofenac potassium, potassium 2-[(2,6-dichlorophenyl)amino]-phenyl acetate]", "values": [{"measurement": "ocular penetration / levels of radioactivity (in words)", "setting": "[1]; in comparison to diclofenac sodium, acetate", "value": "much superior; also recorded: clearly displayed higher levels of radioactivity"}, {"measurement": "ocular distribution, order of concentrations (in words)", "setting": "[1]; rabbit, in vivo", "value": "highest concentrations are found in the cornea, and in descending order in the aqueous humor, in the iris ciliary body and in the vitreous"}, {"measurement": "efficacy / degree of inflammation (in words)", "setting": "[2]; 0.05% diclofenac potassium versus 0.1% diclofenac sodium", "value": "almost totally suppressed"}, {"measurement": "fold efficacy of diclofenac sodium", "setting": "[2]; taking into account 0.1% versus 0.05% drug concentration", "value": "more than five fold"}, {"measurement": "efficacy in all the aforementioned animal models (in words)", "setting": "[3]", "value": "better efficacy"}, {"measurement": "duration of action (in words)", "setting": "[4]; e.g. in the eye", "value": "long lasting duration of action"}, {"measurement": "onset of action (in words)", "setting": "[4]; e.g. in the eye", "value": "surprisingly short onset of action"}, {"measurement": "topical tolerance, e.g. ocular tolerance, and efficacy (in words)", "setting": "[4]; in comparison to diclofenac sodium", "value": "much better topical tolerance, e.g. ocular tolerance, and efficacy"}]}]}
